From patent US20030158093A1, “Bifunctional glycopeptide antibiotics and combinatorial libararies thereof” (priority 2001, published 2003)
In brackets after ≈: the same amount, converted by molar mass. Values belong to the molecule of their own block, whether it stands above or below them.

Key:
Assay type in all cases: cell-based
[1] = test system: E. faecalis resistant (VanB) (CL4877); experiment: MIC, standard microdilution assay, E. faecalis resistant (VanB); conditions: strain CL4877; for MIC: Enterococcus faecalis, 22 h
Experimental: (§1) Briefly, compound 7 and compound 10 were synthesized by utilizing procedures described, for example, in Thompson, C. et al., J. Am. Chem. Soc., 1999, 121, 1237. Compound 8 was prepared from tri-O-acetyl-D-glucal by a one-step procedure described by Chen, Z. Ph.D. Dissertation, Princeton University, Princeton, N.J. 2001.

transglycosylation = experiment: Inhibition of transglycosylation in a permeabilized E. coli model
[2] = test system: E. faecium resistant (VanA) (CL4931); experiment: MIC, standard microdilution assay, E. faecium resistant (VanA); conditions: strain CL4931; for MIC: Enterococcus faecium, 22 h
Experimental: as §1

[3] = test system: E. faecalis sensitive (29212); experiment: MIC, standard microdilution assay, E. faecalis sensitive; conditions: strain 29212; for MIC: Enterococcus faecalis, 22 h
Experimental: as §1

S. aureus (29213) = experiment: MIC, standard microdilution assay, S. aureus; conditions: strain 29213; for MIC: Staphylococcus aureus, 22 h
Experimental: as §1

[4] = test system: E. faecium sensitive (49624); experiment: MIC, standard microdilution assay, E. faecium sensitive; conditions: strain 49624; for MIC: Enterococcus faecium, 22 h
Experimental: as §1

Molecule: CCCCCCCCCCCCOP(=O)(O)OC1OC(C(N)=O)C(OC)C(NC(=O)Nc2ccc(Cl)c(C(F)(F)F)c2)C1OC1OC(CO)C(O)C(O)C1NC(=O)c1cccc(C(F)(F)F)c1 (stereo not drawn) [Compound 4]
MIC ([1]; Table 2): 3.1 µg/mL (≈ 3.07 µM)
inhibition of transglycosylation (transglycosylation): inhibits transglycosylation
MIC ([2]; Table 2): 6.2 µg/mL (≈ 6.14 µM)
MIC ([3]; Table 2): 6.2 µg/mL (≈ 6.14 µM)
MIC (S. aureus (29213); Table 2): 6.2 µg/mL (≈ 6.14 µM)
MIC ([4]; Table 2): 6.2 µg/mL (≈ 6.14 µM)

MIC ([1]; Table 2): 250 µg/mL (≈ 266 µM)
MIC ([2]; Table 2): 250 µg/mL (≈ 266 µM)
MIC ([3]; Table 2): 125 µg/mL (≈ 133 µM)
MIC (S. aureus (29213); Table 2): 125 µg/mL (≈ 133 µM)
MIC ([4]; Table 2): 250 µg/mL (≈ 266 µM)
Molecule: COc1cccc(OC)c1OCCOC1OC(C(N)=O)C(OC)C(NC(=O)Nc2ccc(Cl)c(C(F)(F)F)c2)C1OC1OC(CO)C(O)C(O)C1NC(=O)c1cccc(C(F)(F)F)c1 (stereo not drawn) [Compound 6]

Molecule: CN[C@H](CC(C)C)C(=O)N[C@H]1C(=O)N[C@@H](CC(N)=O)C(=O)N[C@H]2C(=O)N[C@H]3C(=O)N[C@H](C(=O)N[C@H](C(=O)O)c4cc(O)cc(O)c4-c4cc3ccc4O)[C@H](O)c3ccc(c(Cl)c3)Oc3cc2cc(c3O)Oc2ccc(cc2Cl)[C@H]1O [Vancomycin Aglycon, Vancomycin aglycone]
22-hr MIC E. faecalis resistant (VanB) ([1]; Table 2): >500 µg/mL
22-hr MIC E. faecium resistant (VanA) ([2]; Table 2): >500 µg/mL
22-hr MIC E. faecalis sensitive ([3]; Table 2): 8 µg/mL
22-hr MIC S. aureus (S. aureus (29213); Table 2): 2 µg/mL
22-hr MIC E. faecium sensitive ([4]; Table 2): 2 µg/mL

Molecule: vancomycin [Compound 1a]
MIC E. faecalis resistant (VanB) ([1]; Table 1, 35° C., 22h): >500 µg/mL
MIC E. faecium resistant (VanA) ([2]; Table 1, 35° C., 22h): >500 µg/mL
MIC E. faecalis sensitive ([3]; Table 1, 35° C., 22h): 16 µg/mL
MIC S. aureus (S. aureus (29213); Table 1, 35° C., 22h): 4 µg/mL
MIC E. faecium sensitive ([4]; Table 1, 35° C., 22h): 2 µg/mL
